# From US20210395210A1, “INHIBITION OF BACTERIAL CHAPERONIN SYSTEMS” (THE TRUSTEES OF INDIANA UNIVERSITY, priority 2018, published 2021)
# Read-outs that look alike come from different tables or passages of the source.
# Legend:
# [1] = molecular target: T1, human HSP60/10 (Homo sapiens, UniProt P10809); assay: HSP60/10-mediated dMDH refolding assay; format: biochemical; settings: human HSP60/10-dMDH refolding assay
# T1 construct: octa-Histidine tag (TEV-cleavable) (N, cleaved yes); made in house; host or cells: HSP60 in E. coli Rosetta 2 (DE3); HSP10 in Rosetta 2 (DE3) pLysS
# Experimental: Reagent preparation: For these assays, four primary reagent stocks were prepared: 1) GroEUES-dMDH or HSP60/10-dMDH binary complex stock; 2) ATP initiation stock; 3) EDTA quench stock; 4) MDH enzymatic assay stock. Denatured MDH (dMDH) was prepared by 2-fold dilution of MDH (5 mg/ml, soluble pig heart MDH from Roche, product #10127248001) with denaturant buffer (7 M guanidine-HCl, 200 mM Tris, pH 7.4, and 50 mM DTT). MDH was completely denatured by incubating at room temperature for 45 min. The binary complex solutions were prepared by slowly adding the dMDH stock to a stirring stock with GroEL (or HSP60) in folding buffer (50 mM Tris-HCl, pH 7.4, 50 mM KCl, 10 mM MgCl2, and 1 mM DTT), followed by addition of GroES (or HSP10). The binary complex stocks were prepared immediately prior to dispensing into the assay plates and had final protein concentrations of 83.3 nM GroEL (Mr 800 kDa) or HSP60 (Mr 400 kDa), 100 nM GroES or HSP10 (Mr 70 kDa), and 20 nM dMDH in folding buffer. For the ATP initiation stock, ATP solid was diluted into folding buffer to a final concentration of 2.5 mM. Quench solution contained 600 mM EDTA (pH 8.0). The MDH enzymatic assay stock consisted of 20 mM sodium mesoxalate and 2.4 mM NADH in reaction buffer (50 mM Tris-HCl, pH 7.4, 50 mM KCl, and 1 mM DTT).
# Assay Protocol: First, 30 μL aliquots of the GroEL/ES-dMDH or HSP60/10-dMDH binary complex stocks were dispensed into clear, 384-well polystyrene plates. […] The chaperonin-mediated refolding cycles were initiated by addition of 20 μL of ATP stock (reagent concentrations during refolding cycle: 50 nM GroEL or HSP60, 60 nM GroES or HSP10, 12 nM dMDH, 1 mM ATP, and compounds of 100 μM to 46 nM, 3-fold dilution series). The refolding reactions were incubated at 37° C. […] Next, the assay was quenched by addition of 10 μL of the EDTA to final concentration of 100 mM. […] A340 nm measurements were recorded at 0.5 minutes (start point) and at successive time points until the amount of NADH consumed reached ˜90% (end point, generally between 20-35 minutes). The differences between the start and end point A340 values were used to calculate the % inhibition of the GroEL/ES or HSP60/10 machinery by the compounds. […] Results presented represent the averages of IC50 values obtained from at least quadriplicate (duplicate of duplicate) replicates.
# [2] = system: Drug sensitive Staphylococcus aureus (ATCC 25923); assay: Bacterial proliferation assay, drug sensitive S. aureus; format: cell-based
# Source text: (§1) Bacterial Strains: Enterococcus faecium—(Orla-Jensen) Schleifer and Kilpper-Balz strain NCTC 7171 (ATCC 19434); Drug sensitive Staphylococcus aureus—Rosenbranch strain Seattle 1945 (ATCC 25923); Methicillin resistant S. aureus (MRSA)—Rosenbach strain HPV107 (ATCC BAA-44); Klebsiella Pneumonia—(Schroeter) Trevisan strain NCTC 9633 (ATCC 13883); Acinetobacter baumannii—Bouvet and Grimont strain 2208 (ATCC 19606); Pseudomonas aeruginosa—(Schroeter) Migula strain NCTC 10332 (ATCC 10145); Enterobacter cloacae—E. cloacae, subsp. cloacae (Jordan) Hormaeche and Edwards strain CDC 442-68 (ATCC 13047).
# (§2) Growth Media: All bacteria were grown in Brain Heart Infusion (BHI) broth/agar (Becton, Dickinson and Company). All liquid cultures were grown in BHI media supplemented with 25 mg/L Ca^2+ and 12.5 mg/L Mg^2+ to mimic free physiological concentrations of these cations. A 10 mg/mL Ca^2+ stock solution was prepared by dissolving 3.68 g of CaCl2.2H2O in 100 mL of deionized water, and a 10 mg/mL Mg^2+ stock solution was prepared by dissolving 8.36 g of MgCl2.6H2O in 100 mL deionized water. Both stock solutions were filter-sterilized using 0.2 μm pore size cellulose-acetate filters. 2.5 mL of the sterile 10 mg/mL Ca^2+ stock and 1.25 mL of the sterile 10 mg/mL Mg^2+ stock solutions were added per 1 L of autoclaved BHI medium to obtain 25 mg/L Ca^2+ and 12.5 mg/L Mg^2+ ions, respectively.
# (§3) General Assay Protocol: Stock bacterial cultures were streaked onto BHI agar plates and grown overnight at 37° C. Fresh aliquots of broth were inoculated with single bacterial colonies and the cultures were grown overnight at 37° C. with shaking (240 rpm) in cation adjusted BHI media. The following morning, the overnight cultures were sub-cultured (1:5 dilution) into fresh aliquots of cation adjusted BHI media and grown at 37° C. for 1-2 hours with shaking. After 2 h, cultures were diluted into fresh media to achieve final OD600 readings of 0.017. Aliquots of these diluted cultures (30 μL) were added to clear, flat-bottom, 384-well polystyrene plates that were stamped with 0.5 μL of test compounds in 20 μL media. […] Plates were sealed with “Breathe Easy” oxygen permeable membranes (Diversified Biotech) and left to incubate at 37° C. without shaking (stagnant assay). OD600 nm readings were taken at either 6-8 h (S. aureus, MRSA, K. pneumonia, E. cloacae, and P. aeruginosa) or 24 h (E. faecium and A. baumannii). A second set of baseline control plates were prepared analogously, but without any bacteria added, to correct for possible compound absorbance and/or precipitation. Plates were then read at 600 nm using a Molecular Devices SpectraMax Plus384 microplate reader. […] Results presented represent the averages of EC50 values obtained from at quadriplicate (duplicate of duplicate) replicates.
# [3] = system: Pseudomonas aeruginosa (ATCC 10145); assay: Bacterial proliferation assay, P. aeruginosa; format: cell-based
# Source text: as §1, §2, §3
# [4] = system: Enterobacter cloacae (ATCC 13047); assay: Bacterial proliferation assay, E. cloacae; format: cell-based
# Source text: as §1, §2, §3
# [5] = read-out: HSP60/10-dMDH Refolding IC50
# [6] = log(IC50) ± standard deviation, read-out: HSP60/10-dMDH Refolding Assay log(IC50) (converted)
# [7] = ATCC25923, OD600 at 6-8 h, read-out: Bacterial Proliferation EC50 S. aureus Sensitive
# [8] = ATCC25923, log of EC50 (μM scale), with standard deviation, read-out: log(EC50) Bacterial Proliferation Assay S. aureus Sensitive (converted)
# [9] = ATCC10145, OD600 at 6-8 h, read-out: Bacterial Proliferation EC50 P. aeruginosa
# [10] = ATCC10145, log of EC50 (μM scale), with standard deviation, read-out: log(EC50) Bacterial Proliferation Assay P. aeruginosa (converted)
# [11] = ATCC13047, OD600 at 6-8 h, read-out: Bacterial Proliferation EC50 E. cloacae
# [12] = ATCC13047, log of EC50 (μM scale), with standard deviation, read-out: log(EC50) Bacterial Proliferation Assay E. cloacae (converted)
# [13] = ATCC25923, read-out: Bacterial Proliferation EC50 S. aureus Sensitive
# [14] = ATCC25923, read-out: log(EC50) Bacterial Proliferation Assay S. aureus Sensitive (converted)
# [15] = ATCC10145, read-out: Bacterial Proliferation EC50 P. aeruginosa
# [16] = ATCC10145, read-out: log(EC50) Bacterial Proliferation Assay P. aeruginosa (converted)
# [17] = ATCC13047, read-out: Bacterial Proliferation EC50 E. cloacae
# [18] = ATCC13047, read-out: log(EC50) Bacterial Proliferation Assay E. cloacae (converted)
# [19] = ATCC25923, read-out: S. aureus Proliferation & Biofilm Assay EC50 Planktonic Growth
# T1 sequence (P10809 27-573): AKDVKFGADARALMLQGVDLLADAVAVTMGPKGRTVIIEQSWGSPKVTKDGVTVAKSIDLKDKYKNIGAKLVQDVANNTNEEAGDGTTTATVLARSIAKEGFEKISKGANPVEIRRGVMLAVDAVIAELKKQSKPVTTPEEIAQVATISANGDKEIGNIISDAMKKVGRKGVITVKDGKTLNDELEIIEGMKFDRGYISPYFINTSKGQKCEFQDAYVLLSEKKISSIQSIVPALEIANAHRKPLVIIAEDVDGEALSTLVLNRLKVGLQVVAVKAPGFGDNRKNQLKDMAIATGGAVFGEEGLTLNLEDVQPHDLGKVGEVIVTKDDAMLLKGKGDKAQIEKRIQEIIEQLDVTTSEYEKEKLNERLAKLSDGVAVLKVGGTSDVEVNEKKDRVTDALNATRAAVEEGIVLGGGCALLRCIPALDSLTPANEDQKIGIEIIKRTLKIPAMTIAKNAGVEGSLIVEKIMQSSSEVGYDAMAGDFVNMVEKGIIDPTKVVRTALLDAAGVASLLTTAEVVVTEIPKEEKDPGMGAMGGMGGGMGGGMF
Structure (SMILES),"IC50 [1, 5] [µM]","IC50 [1, 6] [µM]","EC50 [2, 7] [µM]","EC50 [2, 8] [µM]","EC50 [3, 9] [µM]","EC50 [3, 10] [µM]","EC50 [4, 11] [µM]","EC50 [4, 12] [µM]","EC50 [2, 13] [µM]","EC50 [2, 14] [µM]","EC50 [3, 15] [µM]","EC50 [3, 16] [µM]","EC50 [4, 17] [µM]","EC50 [4, 18] [µM]","EC50 [2, 19] [µM]"
"CC1(C)S[C@@H]2[C@H](NC(=O)[C@H](N)c3ccccc3)C(=O)N2[C@H]1C(=O)O [Ampicillin, ampicillin, reference compound]",> 100,> 100,0.19,0.195,> 100,> 100,> 100,> 100,–,–,–,–,–,–,–
"Cc1cc(C(C#N)c2ccc(Cl)cc2)c(Cl)cc1NC(=O)c1cc(I)cc(I)c1O (stereo not shown) [Closantel, closantel, reference compound]",–,–,–,–,–,–,–,–,0.47,0.468,> 100,> 100,> 100,> 100,–
"O=C(Nc1ccc(Sc2nc3ccccc3s2)c(Cl)c1)c1cc(Br)cc(Br)c1O [Compound 1, N-(4-(Benzo[d]thiazol-2-ylthio)-3-chlorophenyl)-3,5-dibromo-2-hydroxybenzamide]",4.2,4.17,–,–,–,–,–,–,0.36,0.363,> 100,> 100,> 100,> 100,0.36
"O=C(Nc1ccc(Sc2nc3ccccc3s2)c(Cl)c1)c1cccc(Br)c1O [Compound 2, N-(4-(Benzo[d]thiazol-2-ylthio)-3-chlorophenyl)-3-bromo-2-hydroxybenzamide]",6.9,6.92,–,–,–,–,–,–,0.45,0.457,> 100,> 100,> 100,> 100,0.45
"O=C(Nc1ccc(Sc2nc3ccccc3s2)c(Cl)c1)c1cc(Br)ccc1O [Compound 3, N-(4-(Benzo[d]thiazol-2-ylthio)-3-chlorophenyl)-5-bromo-2-hydroxybenzamide]",> 100,> 100,–,–,–,–,–,–,0.12,0.117,> 100,> 100,> 100,> 100,–
"O=C(Nc1ccc(Sc2nc3ccccc3s2)c(Cl)c1)c1ccccc1O [Compound 4, N-(4-(Benzo[d]thiazol-2-ylthio)-3-chlorophenyl)-2-hydroxybenzamide]",> 100,> 100,0.31,0.309,> 100,> 100,> 100,> 100,–,–,–,–,–,–,–
"O=C(Nc1ccc(Sc2nc3ccccc3s2)cc1)c1cc(Br)cc(Br)c1O [Compound 5, N-(4-(Benzo[d]thiazol-2-ylthio)phenyl)-3,5-dibromo-2-hydroxybenzamide]",4.7,4.68,–,–,–,–,–,–,0.44,0.437,> 100,> 100,> 100,> 100,0.44
"O=C(Nc1ccc(Sc2nc3ccccc3s2)cc1)c1cccc(Br)c1O [Compound 6, N-(4-(Benzo[d]thiazol-2-ylthio)phenyl)-3-bromo-2-hydroxybenzamide]",26,25.7,–,–,–,–,–,–,0.76,0.759,> 100,> 100,> 100,> 100,–
"O=C(Nc1ccc(Sc2nc3ccccc3s2)cc1)c1cc(Br)ccc1O [Compound 7, N-(4-(Benzo[d]thiazol-2-ylthio)phenyl)-5-bromo-2-hydroxybenzamide]",> 100,> 100,–,–,–,–,–,–,0.12,0.12,> 100,> 100,> 100,> 100,–
"O=C(Nc1ccc(Sc2nc3ccccc3s2)cc1)c1ccccc1O [Compound 8, N-(4-(Benzo[d]thiazol-2-ylthio)phenyl)-2-hydroxybenzamide]",> 100,> 100,0.2,0.204,> 100,> 100,> 100,> 100,–,–,–,–,–,–,–
"O=C(Nc1cccc(Cl)c1)c1cc(Br)cc(Br)c1O [Compound 9, 3,5-Dibromo-N-(3-chlorophenyl)-2-hydroxybenzamide]",29,28.8,–,–,–,–,–,–,0.66,0.661,> 100,> 100,78,77.6,–
"O=C(Nc1cccc(Cl)c1)c1cccc(Br)c1O [Compound 10, 3-Bromo-N-(3-chlorophenyl)-2-hydroxybenzamide]",> 100,> 100,1.3,1.32,> 100,> 100,> 100,> 100,–,–,–,–,–,–,–
"O=C(Nc1ccc(Oc2ccc(Cl)cc2)c(Cl)c1)c1cc(I)cc(I)c1O [Rafoxanide, rafoxanide, reference compound]",–,–,–,–,–,–,–,–,0.32,0.324,> 100,> 100,40,40.7,–
